Source: US20240383913A1, “THIOPHENE RING COMPOUND, PREPARATION METHOD THEREFOR AND APPLICATION THEREOF” (CENTER FOR EXCELLENCE IN MOLECULAR CELL SCIENCE, CHINESE …, priority 2021, published 2024)

Key:
dopamine D2 receptors = dopamine D2 receptors (Homo sapiens (Human), UniProt P14416); test: Dopamine D2 receptor β-arrestin2 BRET (recruitment); format: cell-based; conditions: D2 receptor, β-arrestin2 pathway;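 further: cells co-expressing Rluc-fused D2 receptor, GRK2 and GFP2-fused β-arrestin2, BRET read with coelenterazine 400a after adding drug over a concentration series, in duplicate wells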
Sequence of dopamine D2 receptors (P14416 whole entry, the tested form may be a part): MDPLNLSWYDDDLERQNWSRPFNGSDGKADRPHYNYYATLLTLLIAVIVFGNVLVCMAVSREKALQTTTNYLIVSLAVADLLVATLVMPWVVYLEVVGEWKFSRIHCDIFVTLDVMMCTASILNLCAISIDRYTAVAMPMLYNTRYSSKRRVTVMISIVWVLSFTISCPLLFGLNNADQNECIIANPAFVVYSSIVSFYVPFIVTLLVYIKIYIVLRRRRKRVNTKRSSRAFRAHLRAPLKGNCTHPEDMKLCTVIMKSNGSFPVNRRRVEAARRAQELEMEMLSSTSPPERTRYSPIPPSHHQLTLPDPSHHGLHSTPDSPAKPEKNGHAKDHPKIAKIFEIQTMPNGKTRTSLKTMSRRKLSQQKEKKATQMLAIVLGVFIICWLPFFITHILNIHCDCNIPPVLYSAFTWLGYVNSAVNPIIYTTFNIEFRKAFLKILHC
Protocol: To examine the downstream G protein signaling pathway mediated by dopamine D2 receptors, on the first day, a 6 cm culture dish was used for transfection with 1 μg of dopamine D2 receptors, 1 μg of Gαi1 containing a C-terminal seaweed luciferase (Gαi1-Rluc), 1 μg of Gβ3, 1 μg of Gγ9 containing C-terminal green fluorescent protein (Gγ9-GFP), and 16 μL of PEI. At the same time, in order to examine the downstream β-arrestin2 signaling pathway mediated by dopamine D2 receptors, on the first day, a 6 cm culture dish was used for transfection with 500 μg of dopamine D2 receptors containing C-terminal seaweed luciferase (D2-Rluc), 500 μg of G protein-coupled receptor kinase 2 (GRK2), 2500 μg of β-arrestin2 containing N-terminal green fluorescent protein (GFP2-ARRB2) mixed with 14 μL of PEI. The next day, the confluent cells of a 6 cm culture dish were digested and reseeded into a 96-well plate with 100 μL of culture medium added to each well. On the third day, the drugs were added for test. The 96-well plate was taken out from the cell incubator to decant the culture medium, 40 μL of the substrate coelenterazine 400a (final concentration of 5 μM) was added to each well, and then 20 μL of different drugs were added sequentially from left to right to ensure that the final concentration of the drug decreased gradually from bottom to top, with two replicates per treatment. Finally, the prepared samples were loaded on machine for test. The machine readout value reflected the recruitment of β-arrestin2 to the membrane or the dissociation of G protein trimer. The former indicated the degree of activation of the β-arrestin2 signaling pathway downstream of the dopamine D2 receptors, and the latter indicated the degree of activation of the G protein signaling pathway downstream of the dopamine D2 receptors.

[1] = system: restraint-induced depression-like behaviors; test: Tail suspension test after 5-hour restraint; format: in vivo, C57B6 male mice; conditions: for Immobility time (seconds), tail suspension test: 5 hour restraint
Protocol: The experimental animals were C57B6 male mice, n=8 in each group. 5-hour restraint were used to develop depression-like behavioral representations of the mice, then the effects of the compounds on their “depression-like” behaviors were measured according to behavioral performance in tail suspension test and forced swimming test. The specific experimental procedures were as follows: Firstly, the mice were restrained using a mouse fixator for tail vein injection. During the restraint process, all movement abilities of the mice were restricted under the condition of introducing minimal pain to the mice. Compounds were administered intraperitoneally twice, before and after restraint, respectively. After compound administration, the mice returned to the cage to recover for 30 minutes. After 30 minutes recovery, the mice in different groups were subjected to tail suspension test or forced swimming test to measure their “depression-like” behaviors.
Tail suspension test: mouse tails were fixed a cantilever arm on an iron rack using adhesive tape, and the mouse was maintained in a suspension position for 6 minutes. The first 2 minutes were the adaptation period and no data collection was performed. Subsequently, the mouse's immobility behavior was recorded intermittently for the remaining 4 minutes. The duration of immobility was measured to assess the level of behavioral despair in the mice. Data statistics were performed using Student-t-test analysis, *p<0.05, ** p<0.01, *** p<0.001, **** p<0.0001.

5-HT1A receptor = 5-HT1A receptor (Homo sapiens (Human), UniProt P08908); test: 5-HT1A receptor Gαi1 BRET (G protein trimer dissociation); format: cell-based; conditions: 5-HT1A receptor, G protein pathway;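 further: cells transiently co-expressing 5-HT1A receptor, luciferase-tagged Gαi1, Gβ3 and GFP-tagged Gγ9, seeded in 96-well plates for BRET measurement of G protein signaling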
Sequence of 5-HT1A receptor (P08908 whole entry): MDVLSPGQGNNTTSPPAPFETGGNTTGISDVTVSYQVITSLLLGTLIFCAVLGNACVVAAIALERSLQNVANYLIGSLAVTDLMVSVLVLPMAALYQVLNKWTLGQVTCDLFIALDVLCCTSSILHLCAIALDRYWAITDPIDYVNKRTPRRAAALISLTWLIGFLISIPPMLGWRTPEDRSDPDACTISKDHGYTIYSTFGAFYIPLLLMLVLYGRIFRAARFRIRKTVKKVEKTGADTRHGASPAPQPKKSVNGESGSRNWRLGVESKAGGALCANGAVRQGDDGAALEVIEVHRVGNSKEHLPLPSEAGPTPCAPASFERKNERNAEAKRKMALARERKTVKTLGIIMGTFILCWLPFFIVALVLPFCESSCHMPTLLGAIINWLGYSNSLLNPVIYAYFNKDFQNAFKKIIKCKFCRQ
Protocol: The affinity of the compounds of the present disclosure for the 5-HTIA receptors was determined by the method of radioligand competition experiment. In the first step, a cell membrane component containing specific 5-HTIA receptor was prepared. A 10 cm culture dish was used for transfection with 10 ng of the 5-HTIA receptor and 40 μL of PEI. After 48 hours, the 10 cm culture dish was taken out from the cell incubator and the cultured cells had expressed the 5-HTIA receptor. A vacuum pump was used to suck off the culture medium, 3 mL of lysis buffer was added to each culture dish, and the cells were placed in a 4° C. cold room for 10 minutes. After the cells were detached, the cells were transferred to a 15 mL centrifuge tube and centrifuged at 1500 rpm for 5 minutes at 4° C., and the supernatant was discarded. The cell pellet was transferred to a tissue homogenizer, and 3 mL of lysis buffer was added and fully ground until the cells were broken. Then, cell suspension was equally aliquoted into several EP tubes, centrifuged at 12000 rpm for 5 minutes at 4° C., and the supernatant was discarded. The precipitate was the cell membrane component containing the 5-HT1A receptor. […] First, a standard binding buffer was added to the cell membrane component containing the 5-HT1A receptor, and the cell membrane was disrupted and resuspended with an electric tissue homogenizer. 30 μL of membrane protein suspension was added to each well of a 96-well plate. Then, 30 μL of different drugs were added to the 96-well plate sequentially from bottom to top to ensure that the final drug concentrations were 10^−5 M, 10^−6 M, 10^−7 M, 10^−8 M, 10^−9 M, and 0 M, with two replicates per treatment. Next, 30 μL of [3H]-LSD was added to each well of the 96-well plate. The plate was incubated for 2 hours at room temperature in the dark. Detection was conducted. The machine readout value reflected the amount of [3H]-LSD bound on the membrane, and after further data processing, the affinity Ki values of different compounds for the 5-HTIA receptor were obtained. To examine the downstream G protein signaling pathway mediated by 5-HTIA receptors, on the first day, a 6 cm culture dish was used for transfection with 1 μg of 5-HTIA receptors, 1 μg of Gαi1 containing C-terminal seaweed luciferase (Gαi1-Rluc), 1 μg of Gβ3, 1 μg of Gγ9 containing C-terminal green fluorescent protein (Gγ9-GFP), and 16 μL of PEI. The next day, the confluent cells of a 6 cm culture dish were digested and reseeded into a 96-well plate with 100 μL of culture medium was added to each well. On the third day, the drugs were added for test. The 96-well plate was taken out from the cell incubator to decant the culture medium, 40 μL of the substrate coelenterazine 400a (final concentration of 5 μM) was added to each well, and then 20 μL of different drugs were added sequentially from left to right to ensure that the final concentration of the drug decreased gradually from bottom to top, with two replicates per treatment. Finally, the prepared samples were loaded on machine for test. The machine readout value reflected the dissociation of G protein trimer, and thereby indicated the degree of activation of the G protein signaling pathway downstream of the 5-HTIA receptors.

CN(C)C(=O)N[C@H]1CC[C@H](CCN2CCN3c4cccc5scc(c45)CC3C2)CC1 (single isomer, unassigned; (-)) [(−)-I-27]
β-arrestin2 BRET (Emax %) (dopamine D2 receptors): (54.79%) | EC50 (dopamine D2 receptors; read-out: β-arrestin2 BRET EC50): 10.6 nM | Inhibition of restraint-induced depression-like behaviors ([1]; 0.1 mg/kg and 0.025 mg/kg i.p., tail suspension and forced swimming tests): significantly inhibit | Immobility time (seconds), tail suspension test ([1]; (−)-I-27 0.025 mg/kg i.p.): 87.04 ± 7.69 s | Immobility time (seconds), tail suspension test ([1]; (−)-I-27 0.1 mg/kg i.p.): 54.13 ± 6.99 s | Gαi1 BRET (Emax %) (5-HT1A receptor): (76%) | EC50 (5-HT1A receptor; read-out: Gαi1 BRET EC50): 166 nM
